Measurements as given in patent US4542137A, “Alkylaminodesoxy-1.4;3.6-dianhydrohexitol nitrates substituted by purine bases and pharmaceutical compositions” (priority 1980, dated 1985).

Tested on: mongrel dogs
Assay: circulatory pharmacological effectiveness on narcotised dogs, intravenous
Type: in vivo, dog
[1] = dog i.v. ISDN/9c 1, 1d 0.5 mg/kg, 40 min
[2] = dog i.v. ISDN/9c 1, 1d 0.5 mg/kg, 50 min
[3] = dog i.v. ISDN/9c 1, 1d 0.5 mg/kg, 60 min
[4] = dog i.v. ISDN/9c 1, 1d 0.5 mg/kg, 90 min
[5] = dog i.v. ISDN/9c 1, 1d 0.5 mg/kg, 120 min
[6] = dog i.v. ISDN/9c 1, 1d 0.5 mg/kg, 150 min
[7] = dog i.v. ISDN/9c 1, 1d 0.5 mg/kg, 180 min
[8] = dog i.v., before administration (v)

Cn1c(=O)c2c(ncn2CCCN[C@H]2CO[C@H]3[C@@H]2OC[C@@H]3O[N+](=O)[O-])n(C)c1=O [Example 1d, 5-(3-Theophyllin-7-ylpropyl)-amino-5-desoxy-1.4;3.6-dianhydro-L-iditol 2-nitrate]
BFFem: blood flow in the A. femoralis referred to 20 kg body weight [1]: 58.5 mL/min
HF: heart frequency [1]: 97.5
HLL: heart capacity left, referred to 20 kg body weight [1]: 0.43 W
HLR: heart capacity right, referred to 20 kg body weight [1]: 50.8 mW
HZV: heart minute volume, referred to 20 kg body weight [1]: 2.05 L/min
SV: beat volume, referred to 20 kg body weight [1]: 21.5 mL
WAP: pulmonalis resistance, referred to 20 kg body weight [1]: 0.50 U
WFem: moralis resistance, referred to 20 kg body weight [1]: 0.25 KU
WTP: total peripheral resistance, referred to 20 kg body weight [1]: 6.62 U
dp/dt: rate of pressure increase in the left ventricle [1]: 2193.7 mm.Hg/sec
APdiast: diastolic aorta pressure [2]: 85.9 mm.Hg
APsyst: systolic aorta pressure [2]: 135.9 mm.Hg
BFFem: blood flow in the A. femoralis referred to 20 kg body weight [2]: 62.2 mL/min
HF: heart frequency [2]: 96.2
HLL: heart capacity left, referred to 20 kg body weight [2]: 0.41 W
HLR: heart capacity right, referred to 20 kg body weight [2]: 47.3 mW
HZV: heart minute volume, referred to 20 kg body weight [2]: 1.93 L/min
SV: beat volume, referred to 20 kg body weight [2]: 20.5 mL
WAP: pulmonalis resistance, referred to 20 kg body weight [2]: 0.50 U
WFem: moralis resistance, referred to 20 kg body weight [2]: 0.25 KU
WTP: total peripheral resistance, referred to 20 kg body weight [2]: 7.24 U
dp/dt: rate of pressure increase in the left ventricle [2]: 2006.2 mm.Hg/sec
APdiast: diastolic aorta pressure [3]: 88.5 mm.Hg
APsyst: systolic aorta pressure [3]: 136.8 mm.Hg
BFFem: blood flow in the A. femoralis referred to 20 kg body weight [3]: 62.6 mL/min
HF: heart frequency [3]: 95.5
HLL: heart capacity left, referred to 20 kg body weight [3]: 0.39 W
HLR: heart capacity right, referred to 20 kg body weight [3]: 46.0 mW
HZV: heart minute volume, referred to 20 kg body weight [3]: 1.82 L/min
LVEDP: end diastolic pressure in the left ventricle [3]: 8.06 mm.Hg
SV: beat volume, referred to 20 kg body weight [3]: 19.4 mL
WAP: pulmonalis resistance, referred to 20 kg body weight [3]: 0.46 U
WFem: moralis resistance, referred to 20 kg body weight [3]: 0.26 KU
WTP: total peripheral resistance, referred to 20 kg body weight [3]: 7.90 U
dp/dt: rate of pressure increase in the left ventricle [3]: 1968.7 mm.Hg/sec
APdiast: diastolic aorta pressure [4]: 92.8 mm.Hg
APsyst: systolic aorta pressure [4]: 137.8 mm.Hg
BFFem: blood flow in the A. femoralis referred to 20 kg body weight [4]: 57.4 mL/min
HF: heart frequency [4]: 92.5
HLL: heart capacity left, referred to 20 kg body weight [4]: 0.34 W
HLR: heart capacity right, referred to 20 kg body weight [4]: 36.7 mW
HZV: heart minute volume, referred to 20 kg body weight [4]: 1.57 L/min
LVEDP: end diastolic pressure in the left ventricle [4]: 9.47 mm.Hg
SV: beat volume, referred to 20 kg body weight [4]: 17.4 mL
WAP: pulmonalis resistance, referred to 20 kg body weight [4]: 0.39 U
WFem: moralis resistance, referred to 20 kg body weight [4]: 0.29 KU
WTP: total peripheral resistance, referred to 20 kg body weight [4]: 9.39 U
dp/dt: rate of pressure increase in the left ventricle [4]: 1743.7 mm.Hg/sec
APdiast: diastolic aorta pressure [5]: 95.2 mm.Hg
APsyst: systolic aorta pressure [5]: 139.7 mm.Hg
BFFem: blood flow in the A. femoralis referred to 20 kg body weight [5]: 49.9 mL/min
HF: heart frequency [5]: 96.5
HLL: heart capacity left, referred to 20 kg body weight [5]: 0.35 W
HLR: heart capacity right, referred to 20 kg body weight [5]: 34.9 mW
HZV: heart minute volume, referred to 20 kg body weight [5]: 1.57 L/min
LVEDP: end diastolic pressure in the left ventricle [5]: 9.47 mm.Hg
SV: beat volume, referred to 20 kg body weight [5]: 17.0 mL
WAP: pulmonalis resistance, referred to 20 kg body weight [5]: 0.35 U
WFem: moralis resistance, referred to 20 kg body weight [5]: 0.36 KU
WTP: total peripheral resistance, referred to 20 kg body weight [5]: 9.56 U
dp/dt: rate of pressure increase in the left ventricle [5]: 1659.4 mm.Hg/sec
APdiast: diastolic aorta pressure [6]: 92.8 mm.Hg
APsyst: systolic aorta pressure [6]: 139.7 mm.Hg
BFFem: blood flow in the A. femoralis referred to 20 kg body weight [6]: 49.5 mL/min
HF: heart frequency [6]: 104.5
HLL: heart capacity left, referred to 20 kg body weight [6]: 0.35 W
HLR: heart capacity right, referred to 20 kg body weight [6]: 36.9 mW
HZV: heart minute volume, referred to 20 kg body weight [6]: 1.61 L/min
LVEDP: end diastolic pressure in the left ventricle [6]: 10.12 mm.Hg
SV: beat volume, referred to 20 kg body weight [6]: 15.9 mL
WAP: pulmonalis resistance, referred to 20 kg body weight [6]: 0.37 U
WFem: moralis resistance, referred to 20 kg body weight [6]: 0.37 KU
WTP: total peripheral resistance, referred to 20 kg body weight [6]: 8.10 U
dp/dt: rate of pressure increase in the left ventricle [6]: 1640.6 mm.Hg/sec
APdiast: diastolic aorta pressure [7]: 90.9 mm.Hg
APsyst: systolic aorta pressure [7]: 137.8 mm.Hg
BFFem: blood flow in the A. femoralis referred to 20 kg body weight [7]: 50.9 mL/min
HF: heart frequency [7]: 114.0
HLL: heart capacity left, referred to 20 kg body weight [7]: 0.37 W
HLR: heart capacity right, referred to 20 kg body weight [7]: 38.3 mW
HZV: heart minute volume, referred to 20 kg body weight [7]: 1.73 L/min
LVEDP: end diastolic pressure in the left ventricle [7]: 10.5 mm.Hg
SV: beat volume, referred to 20 kg body weight [7]: 15.5 mL
WAP: pulmonalis resistance, referred to 20 kg body weight [7]: 0.32 U
WFem: moralis resistance, referred to 20 kg body weight [7]: 0.32 KU
WTP: total peripheral resistance, referred to 20 kg body weight [7]: 8.13 U
dp/dt: rate of pressure increase in the left ventricle [7]: 1621.9 mm.Hg/sec
APdiast: diastolic aorta pressure [8]: 76.9 mm.Hg
APsyst: systolic aorta pressure [8]: 152.8 mm.Hg
BFFem: blood flow in the A. femoralis referred to 20 kg body weight [8]: 51.5 mL/min
HF: heart frequency [8]: 101.2
HLL: heart capacity left, referred to 20 kg body weight [8]: 0.50 W
HLR: heart capacity right, referred to 20 kg body weight [8]: 67.1 mW
HZV: heart minute volume, referred to 20 kg body weight [8]: 2.35 L/min
LVEDP: end diastolic pressure in the left ventricle [8]: 7.50 mm.Hg
PAP: average pressure in the A. pulmonalis [8]: 15.59 mm.Hg
SV: beat volume, referred to 20 kg body weight [8]: 23.4 mL
WAP: pulmonalis resistance, referred to 20 kg body weight [8]: 0.46 U
WFem: moralis resistance, referred to 20 kg body weight [8]: 0.29 KU
WTP: total peripheral resistance, referred to 20 kg body weight [8]: 5.78 U
dp/dt: rate of pressure increase in the left ventricle [8]: 1903.1 mm.Hg/sec
PRV: pressure in the right atrium (dog, in vivo, iv): 3.09
HF: heart frequency (iv, 0.5 mg/kg): 103.7
dp/dt: rate of pressure increase in the left ventricle (iv, 0.5 mg/kg): 2306.2 mm.Hg/sec
